The values below come from patent US11440870B2, “Cannabidiolic acid esters compositions and uses thereof” (Yissum Research Development Company of the Hebrew …, priority 2017, dated 2022).

Data set [1] deals with contextually elicited conditioned gaping (anticipatory nausea) in rats. The data set is described as follows: Anticipatory nausea: contextually elicited conditioned gaping in rats. The format is in vivo, male Sprague-Dawley rats. Particulars: for Contextually elicited conditioned gaping compared to VEH controls: 45 min before test. An excerpt: Animal procedures complied with the Canadian Council on Animal Care, and the protocols were approved by the Institutional Animal Care Committee at University of Guelph. Animal studies are reported in compliance with the ARRIVE guidelines (Kilkenny et al., 2010; McGrath and Lilley, 2015). A total of 200 näive male Sprague-Dawley rats, obtained from Charles River Laboratories (St Constant, Quebec), were used for all in vivo studies. Rats were individually housed (for acute nausea studies) or pair-housed [for anticipatory nausea and light-dark emergence studies] in home cages made of opaque white plastic (48×26×20 cm), containing bed-o-cob bedding from Harlan Laboratories, Inc. (Mississauga, Ontario), a brown paper towel, and Crinkl'Nest™ from The Andersons, Inc. (Maumee, Ohio). Additionally, in the home cage, rats were provided with a soft white paper container that was 14 cm long and 12 cm in diameter. All rats were subjected to an ambient temperature of 21° C. and a 12/12 h light-dark schedule (lights off at 07:00 h) and maintained on food (Highland Rat Chow [8640]) and water ad libitum. For the acute and anticipatory nausea studies, their body weights ranged from 263 to 329 g on the day of conditioning. For the light-dark emergence studies, their body weights ranged from 320 to 387 g on the day of test.
For in vivo experiment 2, contextually elicited conditioned gaping (a model of anticipatory nausea) was measured using a distinctive conditioning chamber made of opaque black Plexiglass (22.5×26×20 cm) with an opaque lid that sat on a table with a clear glass top. A mirror beneath the chamber at a 45° angle facilitated viewing of the ventral surface of the rat to observe orofacial responses. The conditioning chamber was in a dark room next to a 25 W light source. A video camera that was fire-wired into a computer was focused on the mirror to record each rat's orofacial reactions during the 5 min test trial. The video tapes were later scored using ‘The Observer’ software. To assess activity, an activity chamber made of white Plexiglas (60×25×25 cm) was used, illuminated by a red light found in a different room that the contextual chamber was used to create a different context from the AN chamber. The activity of each rat was captured by video camera and sent to the Ethovision software program (Noldus, Inc., NL) to measure distance (cm) travelled.
To compare the potential of HU-580 and CBDA to reduce anticipatory nausea, the contextually elicited conditioned gaping paradigm was used (e.g. Limebeer et al., 2010; Rock et al., 2014). Rats underwent four conditioning trials during which the distinctive context was paired with 127 mg·kg^−1 LiCl. On each trial, rats were injected with LiCl and then immediately placed in the conditioning chamber for 30 min. This procedure was repeated four times with a 48 h interval between conditioning trials. For the test trial, rats were randomly assigned to one of five treatment groups (n=6 per group): VEH, 0.1 μg·kg^−1 CBDA, 0.1 μg·kg^−1 HU-580, 0.01 μg·kg^−1 CBDA, […] HU-580. Pretreatments were injected 45 min before the rats were given an saline injection (20 mL·kg^−1 i.p.) and individually placed in the conditioning (contextual) chamber for 5 min, and orofacial responses were video recorded. To investigate the mechanism of action of HU-580, two additional groups of rats were administered 0.1 mg·kg^−1 WAY-VEH (n=8), 0.1 mg·kg^−1 WAY-0.1 μg·kg^−1 HU-580 (n=8). VEH or WAY100635 were administered 15 min before […] or VEH. The video tapes from the test trial were scored by an observer blind to the experimental conditions using ‘The Observer’ for the behaviors of gaping (large openings of the mouth and jaw, with lower incisors exposed). […]

For data set [2], the system named is locomotor activity of rats. The data set is described as follows: Locomotor activity test after the anticipatory nausea test. The format is in vivo, male Sprague-Dawley rats. Particulars: 0.01 or 0.1 μg·kg−1 i.p.; 15 min test; ANOVA F(6, 39)=0.9, P>0.05. The protocol: For in vivo experiment 2, contextually elicited conditioned gaping (a model of anticipatory nausea) was measured using a distinctive conditioning chamber made of opaque black Plexiglass (22.5×26×20 cm) with an opaque lid that sat on a table with a clear glass top. A mirror beneath the chamber at a 45° angle facilitated viewing of the ventral surface of the rat to observe orofacial responses. The conditioning chamber was in a dark room next to a 25 W light source. A video camera that was fire-wired into a computer was focused on the mirror to record each rat's orofacial reactions during the 5 min test trial. The video tapes were later scored using ‘The Observer’ software. […]
To compare the potential of HU-580 and CBDA to reduce anticipatory nausea, the contextually elicited conditioned gaping paradigm was used (e.g. Limebeer et al., 2010; Rock et al., 2014). […] Pretreatments were injected 45 min before the rats were given an saline injection (20 mL·kg^−1 i.p.) and individually placed in the conditioning (contextual) chamber for 5 min, and orofacial responses were video recorded. […] The video tapes from the test trial were scored by an observer blind to the experimental conditions using ‘The Observer’ for the behaviors of gaping (large openings of the mouth and jaw, with lower incisors exposed). […]

Data set [3] concerns LiCl-induced conditioned gaping (acute nausea) in rats. Particulars: i.p.; literature (Bolognini et al., 2013; Rock et al.); cited from earlier work.
Data set [4] concerns anxiety-like responding in rats. Particulars: i.p.; literature (Rock et al., 2017); cited from earlier work.

Turning to `C=C(C)[C@@H]1CCC(C)=C[C@H]1c1c(O)cc(CCCCC)c(C(=O)O)c1O` [CBDA, Cannabidiolic acid], the “Contextually elicited conditioned gaping compared to VEH controls” value is given as “but not CBDA, suppressed contextually elicited conditioned gaping” in data set [1] (0.01 μg·kg−1 i.p.) and “reduced conditioned gaping” in data set [1] (0.1 μg·kg−1 i.p., P<0.05). Besides, the “Distance moved in locomotor activity test” value in data set [2] is recorded as “no significant effect on distance moved”. Also, the “Dose as low as which anti-nausea effects are induced (vomiting in Suncus murinus, conditioned gaping in rats)” value in data set [3] is 1 µg/kg. Also, the “Doses as low as which anxiolytic-like effects are produced under conditions of high stress” value in data set [4] was 0.1 µg/kg.

`C=C(C)[C@@H]1CCC(C)=C[C@H]1c1c(O)cc(CCCCC)c(C(=O)OC)c1O` [HU-580, Cannabidiolic Acid Methyl Ester]: the “Contextually elicited conditioned gaping compared to VEH controls” value is given as “gaping significantly less than VEH controls” in data set [1] (0.01 μg·kg−1 i.p.) and “reduced conditioned gaping” in data set [1] (0.1 μg·kg−1 i.p., P<0.05). In addition, the “Suppressive effect on anticipatory nausea after 5-HT1A antagonist pretreatment” value in data set [1] (0.1 μg·kg−1 HU-580 i.p., WAY100635 0.1 mg·kg−1 15 min before) was “blocked by pretreatment with WAY100635”. Also, the “Dose as low as which contextually elicited conditioned gaping is suppressed” value in data set [1] (i.p., rats) worked out at 0.01 µg/kg. Also, the “Distance moved in locomotor activity test” value in data set [2] is “no significant effect on distance moved”.
